# Results taken from patent US20250123282A1, “METHODS FOR EVALUATION AND TREATMENT OF TYROSINE KINASE INHIBITOR (TKI)-RESISTANT ACUTE MYELOID LEUKEMIA” (LOMA LINDA UNIVERSITY, priority 2021, published 2025).
# Assays:
# MV4-11 = settings: cited from earlier work
# MOLM-14 cells = assay: FACS of TKI-treated MOLM-14 cells in vitro (viable blasts, pBAD); assay type: cell-based, human; settings: 3 days after one dose of 80 nM TKI; vs non-treatment controls
# Protocol: The AML cells were analyzed at different time points after exposure to TKI (3 days, 10 days, 20 days, and 28 days). […] After 3 days, FACS of the surface markers and intracellular proteins, including CD14, CD33, CD44, and Ki67, were performed. FIGS. 1A-1E depicts therapeutic effect of different TKIs on MV4-11 and MOLM-14 cells in vitro (N=6). […] The circles indicate the group of viable blasts located in a FACS plot and green arrows indicate the dying tendency of blasts which will become positive for viability dye during the next few days. FIGS. 1C and 1D are graphical representations of the cumulative FACS percentage data of viable MV4-11 and MOLM-14 cells. *P<0.05. […]
# Flow Cytometry (FACS). […] About 1×10^4˜10^6 cells in 100 μl FACS buffer (PBS containing 1% FBS and 0.05% sodium azide) were stained with various fluorescence-conjugated antibodies specific for the desired cell surface proteins at 4° C. for 30 min. The surface-stained cells were then fixed and permeabilized using the appropriate reagents (e.g. the BD Pharmingen Cytofix/Cytoperm buffer) and stained with different fluorescence-conjugated antibodies specific for the desired intracellular proteins at 4° C. for 2 hours in the permeabilizing buffer (e.g. the BD Perm/Wash buffer). […] Finally, the cells were washed twice in the permeabilizing buffer and twice in the FACS buffer before being analyzed on the BD FACSAria II. […]
# primary AML BMMNC = assay: Ex vivo combination treatment of primary AML BMMNC (FACS, imaging, qPCR); assay type: cell-based, human; settings: 80 nM GILT
# Protocol: Whether targeting the MIF-CXCR2 signaling pathway would effectively treat AML blasts were investigated. First, the combination of GILT with ribosomal protein S19 (RPS19) on MV4-11 blasts was tested in vitro. RPS19, a MIF inhibitor, has been reported to suppress cisplatin-activated MIF-CD74-NFκB signaling pathway in acute kidney injury. […] The combination of 80 nM GILT with 50 uM SB225002, a CXCR2-inhibitor (CXCR2-I) on MV4-11 blasts in vitro were examined. […] The anti-leukemic effect of combining GILT with CXCR2-I on primary BMMNC ex vivo were examined. […] There may be alternative cytokine pathways compensating for the defect of MIF-CXCR2 pathways.
# The combination of 80 nM GILT and 50 uM BAY11-7821 (a NFκB-I) was tested as a novel therapeutic approach for AML.
# Next, the anti-leukemic effect of the combination was examined on primary BMMNC from refractory AML patients (Patient #7, Table 4).
# Human Samples. AML bone marrow (BM) mononuclear cells (BMMNC) (Patients #1-7, Table 4) were obtained from the City of Hope National Medical Center (COHNMC). All donor patients signed an informed consent form. Sample acquisition was approved by the Institutional Review Boards at the LLUMC and the COHNMC in accordance with an assurance filed with and approved by the Department of Health and Human Services, and it met all requirements of the Declaration of Helsinki.
# For MIF in vitro experiments, different doses of MIF were added to 1 ml of 1×10^6 MV4-11 cells or RAW264.7 cells for each experimental group in 24-well plates. Two days after the one dose treatment, cells were then collected for either analyses by FACS and qPCR. As combination agents to treat blasts in vitro or ex vivo, one dose of 80 nM GILT with one dose of different inhibitors were added to 1 ml of 1×10^6 MV4-11 cells or 1 ml of 0.5-1×10^6 primary AML BMMNC for each experimental group in 24-well plates. Dose-dependent experiments of CXCR2 inhibitor and NFκB inhibitor with or without 80 nM GILT were performed. […] Three days after the one dose treatment, cells were then collected for either analyses by FACS and qPCR.
# Flow Cytometry (FACS). Cells were harvested and examined for the expression of cell surface biomarkers (CD) and intracellular proteins by multichromatic FACS as previously described. About 1×10^4˜10^6 cells in 100 μl FACS buffer (PBS containing 1% FBS and 0.05% sodium azide) were stained with various fluorescence-conjugated antibodies specific for the desired cell surface proteins at 4° C. for 30 min. The surface-stained cells were then fixed and permeabilized using the appropriate reagents (e.g. the BD Pharmingen Cytofix/Cytoperm buffer) and stained with different fluorescence-conjugated antibodies specific for the desired intracellular proteins at 4° C. for 2 hours in the permeabilizing buffer (e.g. the BD Perm/Wash buffer). Concentrations of the Abs were used per the manufacturers' recommendations. Finally, the cells were washed twice in the permeabilizing buffer and twice in the FACS buffer before being analyzed on the BD FACSAria II. Data was analyzed using the FlowJo software (Tree Star Inc., Ashland, OR).
# RNA Isolation and Real-Time Polymerase Chain Reaction (qPCR) analysis. MV4-11 and MOLM-14 cells were cultured with the presence of TKI drugs for 72 hours or re-plated 28 days after the treatment of TKI drugs. Cells were isolated for RNA isolation and qPCR analysis as previously described. Total RNA was isolated using the RNeasy Micro Kit (Qiagen) according to the manufacturer's instruction. First-strand cDNA was synthesized using the SuperScript III Reverse Transcriptase (Invitrogen; Life Technologies). With an Applied Biosystems 7900HT Real-Time PCR machine, qPCR was performed and analyzed using known primers for the specific markers. The PCR conditions were 10 minutes at 95° C. followed by 40 cycles of 10 seconds at 95° C. and 15 seconds at 60° C. The relative expression level of a gene was determined using the ΔΔCt method and normalized to GAPDH.
# [1] = newly diagnosed AML, Patient #5, 50 uM BAY11-7821
# [2] = primary BMMNC ex vivo (Patient #2 and #3), 50 uM CXCR2-I
SMILES,dose at which suppression of tumorigenic clustering and c-Kit starts (MV4-11) [nM],viable MOLM-14 blasts (FACS) (MOLM-14 cells),percentage of Ki67+CD33+ proliferating blasts (primary AML BMMNC; [1]) [%],percentage of viable CD33+CD13+ primary blasts (primary AML BMMNC; [1]) [%],percentage of Ki67+CD13+ blasts (primary AML BMMNC; [2]) [%],percentage of viable CD33+CD13+ primary blasts (primary AML BMMNC; [2]) [%]
"CC(C)(C)c1cc(NC(=O)Nc2ccc(-c3cn4c(n3)sc3cc(OCCN5CCOCC5)ccc34)cc2)no1 [QUIZ, Quizartinib]",80,more effective,–,–,–,–
"CCc1nc(C(N)=O)c(Nc2ccc(N3CCC(N4CCN(C)CC4)CC3)c(OC)c2)nc1NC1CCOCC1 [GILT, Gilteritinib]",–,–,73.3,35.8,60,7.14
